# Assay results as given in patent US8791154B2 (Alcon Research, Ltd., priority 2011, dated 2014).
# Experiment: Olopatadine solubility in water and in formulations
# Type: physicochemical
# Conditions: for solubility: Concentration (mg/mL) of solubilized olopatadine
smiles,measurement,setting,value
CN(C)CC/C=C1/c2ccccc2COc2ccc(CC(=O)O)cc21 [Olopatadine],solubility,"formulation with PVP K29/32, SBE-CD, PEG 400 and HPMC, pH 6.96, aqueous with cosolvent or surfactant or cyclodextrin, 4% PVP K29/32, 1.5% SBE-CD, 4% PEG 400, 0.6% HPMC, final pH 6.96",7460 µg/mL
same,solubility,"formulation with PVP K29/32, SBE-CD, PEG 400 and HPMC, pH 7.01, aqueous with cosolvent or surfactant or cyclodextrin, 4% PVP K29/32, 2.3% SBE-CD, 4% PEG 400, 0.6% HPMC, final pH 7.01",8660 µg/mL
same,solubility,"formulation with PVP K29/32, SBE-CD, PEG 400 and HPMC, pH 7.02, aqueous with cosolvent or surfactant or cyclodextrin, 4% PVP K29/32, 2.2% SBE-CD, 4% PEG 400, 0.6% HPMC, final pH 7.02",8620 µg/mL
same,solubility,"formulation with PVP K29/32, SBE-CD, PEG 400 and HPMC, pH 7.04, aqueous with cosolvent or surfactant or cyclodextrin, 4% PVP K29/32, 2.5% SBE-CD, 4% PEG 400, 0.6% HPMC, final pH 7.04",9040 µg/mL
same,solubility,"formulation with PVP K29/32, SBE-CD, PEG 400 and HPMC, pH 7.06, aqueous with cosolvent or surfactant or cyclodextrin, 4% PVP K29/32, 2.0% SBE-CD, 4% PEG 400, 0.6% HPMC, final pH 7.06",8110 µg/mL
same,solubility,"pH 6.97, aqueous with cosolvent or surfactant or cyclodextrin, 4% PVP K29/32, 1.5% SBE-CD, 4% PEG 400, no HPMC, final pH 6.97",6130 µg/mL
same,solubility,"pH 6.97, aqueous with cosolvent or surfactant or cyclodextrin, 4% PVP K29/32, 2.0% SBE-CD, 4% PEG 400, no HPMC, final pH 6.97",6740 µg/mL
same,solubility,"pH 6.98, aqueous with cosolvent or surfactant or cyclodextrin, 4% PVP K29/32, 2.5% SBE-CD, 4% PEG 400, no HPMC, final pH 6.98",7340 µg/mL
same,solubility,"pH 7.01, aqueous with cosolvent or surfactant or cyclodextrin, 4% PVP K29/32, 2.2% SBE-CD, 4% PEG 400, no HPMC, final pH 7.01",6970 µg/mL
same,solubility,"pH 7.02, aqueous with cosolvent or surfactant or cyclodextrin, 4% PVP K29/32, 2.3% SBE-CD, 4% PEG 400, no HPMC, final pH 7.02",7160 µg/mL
same,solubility in water,"water, pH about 7.0, room temperature, olopatadine by itself",about 0.18 w/v %
